Test results taken from ChEMBL document CHEMBL3784959, “Cyclophosphamide pharmacokinetics and dose requirements in patients with renal insufficiency” (Kidney Int, 2002).

How the values were obtained:
[1] = Drug excretion in urine of patient ( 12 patients) with normal renal function at 0.83 +/- 0.05 g/m'2 administered as pulse therapy with 1 hr infusion by HPLC analysis; settings: human, iv, 0.83 g/m'2
[2] = Drug excretion in urine of patient (6 patients) with moderate renal insufficiency at 1.4 +/- 0.1 g/m'2 administered as pulse therapy with 1 hr infusion by HPLC analysis; settings: human, iv, 1.4 g/m'2
[3] = Drug excretion in urine of patient (6 patients) with severe renal insufficiency at 1.1 +/- 0.2 g/m'2 administered as pulse therapy with 1 hr infusion by HPLC analysis; settings: human, iv, 1.1 g/m'2
[4] = Drug excretion in urine of patient (6 patients) with hemodialysis-dependent end-stage renal disease at 1.2 +/- 0.4 g/m'2 administered as pulse therapy with 1 hr infusion followed by hemodialysis for 3 hrs started 7 hrs post dose measured during hemodialysis treatment by HPLC analysis; settings: human, iv, 1.2 g/m'2
[5] = Volume of distribution at steady state in patient (6 patients) with moderate renal insufficiency at 1.4 +/- 0.1 g/m'2 administered as pulse therapy with 1 hr infusion by HPLC analysis; settings: human, in vivo, iv, 1.4 g/m'2
[6] = Volume of distribution at steady state in patient (6 patients) with severe renal insufficiency at 1.1 +/- 0.2 g/m'2 administered as pulse therapy with 1 hr infusion by HPLC analysis; settings: human, in vivo, iv, 1.1 g/m'2
[7] = Volume of distribution at steady state in patient (6 patients) with hemodialysis-dependent end-stage renal disease at 1.2 +/- 0.4 g/m'2 administered as pulse therapy with 1 hr infusion followed by hemodialysis for 3 hrs started 7 hrs post dose measured during hemodialysis treatment by HPLC analysis; settings: human, in vivo, iv, 1.2 g/m'2
[8] = Drug excretion in dialysate of patient (4 patients) with chronic renal failure at 100 mg, iv administered over 10 mins followed by hemodialysis for 4 hrs measured during hemodialysis treatment by GLC analysis; settings: human
[9] = Drug recovery in normal human urine
[10] = clinical; settings: human, in vivo, iv, 1.2 g/m'2
Description: Systemic clearance in patient (6 patients) with hemodialysis-dependent end-stage renal disease at 1.2 +/- 0.4 g/m'2 administered as pulse therapy with 1 hr infusion followed by hemodialysis for 3 hrs started 7 hrs post dose measured during hemodialysis treatment by HPLC analysis

[11] = clinical; settings: human, in vivo, iv, 0.83 g/m'2
Description: Volume of distribution at steady state in patient ( 12 patients) with normal renal function at 0.83 +/- 0.05 g/m'2 administered as pulse therapy with 1 hr infusion by HPLC analysis

[12] = clinical; settings: human, in vivo, iv, 0.83 g/m'2; remark: listed apart in the source
Description: Renal clearance in patient ( 12 patients) with normal renal function at 0.83 +/- 0.05 g/m'2 administered as pulse therapy with 1 hr infusion by HPLC analysis

[13] = clinical; settings: human, in vivo, iv, 1.4 g/m'2
Description: Renal clearance in patient (6 patients) with moderate renal insufficiency at 1.4 +/- 0.1 g/m'2 administered as pulse therapy with 1 hr infusion by HPLC analysis

[14] = clinical; settings: human, in vivo, iv, 1.1 g/m'2
Description: Renal clearance in patient (6 patients) with severe renal insufficiency at 1.1 +/- 0.2 g/m'2 administered as pulse therapy with 1 hr infusion by HPLC analysis

[15] = clinical; settings: human, in vivo, iv, 1.2 g/m'2; remark: listed apart in the source
Description: Renal clearance in patient (6 patients) with hemodialysis-dependent end-stage renal disease at 1.2 +/- 0.4 g/m'2 administered as pulse therapy with 1 hr infusion followed by hemodialysis for 3 hrs started 7 hrs post dose measured during hemodialysis treatment by HPLC analysis

[16] = clinical; settings: human, in vivo, iv, 0.83 g/m'2; remark: listed apart in the source
Description: Elimination half life in patient ( 12 patients) with normal renal function at 0.83 +/- 0.05 g/m'2 administered as pulse therapy with 1 hr infusion by HPLC analysis

[17] = clinical; settings: human, in vivo, iv, 1.4 g/m'2; remark: listed apart in the source
Description: Elimination half life in patient (6 patients) with moderate renal insufficiency at 1.4 +/- 0.1 g/m'2 administered as pulse therapy with 1 hr infusion by HPLC analysis

[18] = clinical; settings: human, in vivo, iv, 1.1 g/m'2; remark: listed apart in the source
Description: Elimination half life in patient (6 patients) with severe renal insufficiency at 1.1 +/- 0.2 g/m'2 administered as pulse therapy with 1 hr infusion by HPLC analysis

[19] = clinical; settings: human, in vivo, iv, 1.2 g/m'2; remark: listed apart in the source
Description: Elimination half life in patient (6 patients) with hemodialysis-dependent end-stage renal disease at 1.2 +/- 0.4 g/m'2 administered as pulse therapy with 1 hr infusion followed by hemodialysis for 3 hrs started 7 hrs post dose measured during hemodialysis treatment by HPLC analysis

[20] = clinical; settings: human, in vivo, iv, 0.83 g/m'2; remark: listed apart in the source
Description: Systemic clearance in patient ( 12 patients) with normal renal function at 0.83 +/- 0.05 g/m'2 administered as pulse therapy with 1 hr infusion by HPLC analysis

[21] = clinical; settings: human, in vivo, iv, 1.4 g/m'2; remark: listed apart in the source
Description: Systemic clearance in patient (6 patients) with moderate renal insufficiency at 1.4 +/- 0.1 g/m'2 administered as pulse therapy with 1 hr infusion by HPLC analysis

[22] = clinical; settings: human, in vivo, iv, 1.1 g/m'2; remark: listed apart in the source
Description: Systemic clearance in patient (6 patients) with severe renal insufficiency at 1.1 +/- 0.2 g/m'2 administered as pulse therapy with 1 hr infusion by HPLC analysis

Compound `O=P1(N(CCCl)CCCl)NCCCO1` (configuration not stated) [CYCLOPHOSPHAMIDE ANHYDROUS] has a dose excreted at 1 h [1] of 19.1%, a dose excreted at 1 h [2] of 5.8% and a dose excreted at 1 h [3] of 5.6%. The dose excreted [4] was 3%, the Vd at 1 h [5] was 0.36 L/kg and the Vd at 1 h [6] was 0.36 L/kg. The Vd [7] was 0.49 L/kg, the dose excreted at 4 h [8] was 37% and the dose excreted [9] was ≤ 25%. The clearance [10] was 64 mL/min, the Vd at 1 h [11] was 0.49 L/kg and the CL renal at 1 h [12] was 14.9 mL/min. For the same compound, the CL renal at 1 h [13] was 3.4 mL/min, the CL renal at 1 h [14] was 2.4 mL/min and the CL renal at 7 h [15] was 2.1 mL/min. The half-life at 1 h [16] was 4.8 h, the half-life at 1 h [17] was 6.4 h and the half-life at 1 h [18] was 7.3 h. It also gave a half-life [19] of 7.3 h, a clearance at 1 h [20] of 79 mL/min and a clearance at 1 h [21] of 57 mL/min. The clearance at 1 h [22] was 47 mL/min.
